Laboratory results as given in patent publication US20250163104A1, “MACROCYCLIC IMMUNOMODULATORS” (priority 2021, published 2025).
pIC50: −log10 of the molar value. *1 amine or outer side, *2 acyl side, *3 side chain or, on linkers, in order; H or OH if unused. Where a SMILES comes first, the peptide text is derived from it. Bridges are numbered along the chain shown (N, C = ends). [ ]: non-standard residue; d: D form. The star is where a group is joined. ξ: configuration not given here. Phe(4-COOH) = N[C@@H](Cc1ccc(C(=O)O)cc1)C(=O)O; Bip = N[C@@H](Cc1ccc(-c2ccccc2)cc1)C(=O)O; Phe(3-Me) = Cc1cccc(C[C@H](N)C(=O)O)c1; βAsp = O=C(O)[C@H](CC(=O)[*:2])N[*:1]; Gly(cPent) = N[C@H](C(=O)O)C1CCCC1; Val(3-OH) = CC(C)(O)[C@H](N)C(=O)O; 3Pal = N[C@@H](Cc1cccnc1)C(=O)O; 4Pal = N[C@@H](Cc1ccncc1)C(=O)O; 3Thi = N[C@@H](Cc1ccsc1)C(=O)O; Cha = N[C@@H](CC1CCCCC1)C(=O)O; Cit = NC(=O)NCCC[C@H](N)C(=O)O; Ile(3ξ) = CCC(C)[C@H](N)C(=O)O; Thr(3ξ) = CC(O)[C@H](N)C(=O)O; Carboxymethyl = O=C(O)C*; Orn = NCCC[C@H](N)C(=O)O; Pra = C#CC[C@H](N)C(=O)O; Dab = NCC[C@H](N)C(=O)O; Dap = NC[C@H](N)C(=O)O; Piv = CC(C)(C)C(=O)*; Sar = CNCC(=O)O

target: T1, human PD-1 / PD-L1-Ig binding on Jurkat cell line over-expressing human PD-1 (Jurkat-PD-1) (Homo sapiens, UniProt Q15116); experiment: Jurkat-PD-1 Cell Binding High-Content Screening Assay (CBA); format: cell-based; conditions: Jurkat-PD-1 cells, PE-labeled PD-L1-Ig 20 nM final; read-out: Jurkat HPD1_PDL1 IC50
T1 construct: expressed in transfected cells; host or cells: Jurkat
In short: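 PE-PD-L1-Ig 20 nM final; cells in DMEM/10% FCS; cpd pre-incubation 2 h, 37° C; ligand 1 h; PFA fix + Hoechst 33342; high-content imaging read-out.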

T1 sequence (Q15116 25-288): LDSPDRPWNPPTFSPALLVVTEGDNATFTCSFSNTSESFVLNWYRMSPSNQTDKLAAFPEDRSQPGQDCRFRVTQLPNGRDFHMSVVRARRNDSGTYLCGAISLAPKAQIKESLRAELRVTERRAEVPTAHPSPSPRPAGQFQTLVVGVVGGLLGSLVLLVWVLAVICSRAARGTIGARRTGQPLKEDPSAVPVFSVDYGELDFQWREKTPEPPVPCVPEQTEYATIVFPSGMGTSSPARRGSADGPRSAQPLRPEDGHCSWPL

Row | Structure (SMILES) | pIC50
1 | Cc1cccc(C[C@@H]2NC(=O)[C@H](CC(=O)O)NC(=O)[C@H](Cc3ccc(OCC(=O)O)cc3)NC(=O)[C@H](CN)NC(=O)CSC[C@@H](C(=O)NCC(N)=O)NC(=O)[C@H]([C@@H](C)O)NC(=O)[C@H](C(C)C)NC(=O)[C@H](CC3CCCCC3)NC(=O)[C@H](CCN)NC(=O)[C@@H](CC(C)C)NC(=O)[C@H](CCCN)NC(=O)[C@H](CCCNC(N)=O)NC(=O)[C@H](Cc3ccc(-c4ccccc4)cc3)NC(=O)[C@H](C(C)C)NC2=O)c1 [Compound 2255] ({CH2CO}-[Dap]Y(Carboxymethyl)D[Phe(3-Me)]V[Bip][Cit][Orn][dL][Dab][Cha]VTCG-NH2; thioether N-14) | 7.93
2 | CC(C)C[C@H]1NC(=O)[C@H](CCCN)NC(=O)[C@H](CCCNC(N)=O)NC(=O)[C@H](Cc2ccc(-c3ccccc3)cc2)NC(=O)[C@H](C2CCCC2)NC(=O)[C@H](Cc2c[nH]c3ccccc23)NC(=O)[C@H](CC(=O)O)NC(=O)[C@H](Cc2ccc(OCC(=O)O)cc2)NC(=O)[C@H](CN)NC(=O)CSC[C@@H](C(=O)N[C@@H](C)C(N)=O)NC(=O)[C@H]([C@@H](C)O)NC(=O)[C@H](C(C)C)NC(=O)[C@H](CC2CCCCC2)NC(=O)[C@H](CCN)NC1=O [Compound 1368] ({CH2CO}-[Dap]Y(Carboxymethyl)DW[Gly(cPent)][Bip][Cit][Orn][dL][Dab][Cha]VTCA-NH2; thioether N-14) | 8.15
3 | Cc1cccc(C[C@@H]2NC(=O)[C@H](CC(=O)O)NC(=O)[C@H](Cc3ccc(OCC(=O)O)cc3)NC(=O)[C@H](C(C)(C)O)NC(=O)CSC[C@@H](C(=O)N[C@@H](CCN)C(N)=O)NC(=O)[C@H](CO)NC(=O)[C@H](C(C)(C)O)NC(=O)[C@H](CC3CCCCC3)NC(=O)[C@H](CCN)NC(=O)[C@@H](CC(C)C)NC(=O)[C@H](CCCN)NC(=O)[C@H](Cc3ccc(OCC(=O)O)cc3)NC(=O)[C@H](Cc3ccc(-c4ccccc4)cc3)NC(=O)[C@H](Cc3ccc(OCC(=O)O)cc3)NC2=O)c1 [Compound 2058] ({CH2CO}-[Val(3-OH)]Y(Carboxymethyl)D[Phe(3-Me)]Y(Carboxymethyl)[Bip]Y(Carboxymethyl)[Orn][dL][Dab][Cha][Val(3-OH)]SC[Dab]-NH2; thioether N-14) | 7.60
4 | CC(C)C[C@@H]1NC(=O)[C@H](CCN)NC(=O)[C@@H](CC(C)C)NC(=O)[C@H](C(C)C)NC(=O)[C@H](C(C)C)NC(=O)[C@H](Cc2ccc(-c3ccccc3)cc2)NC(=O)[C@H](C(C)C)NC(=O)[C@H](Cc2c[nH]c3ccccc23)NC(=O)[C@H](CC(=O)O)NC(=O)[C@H](Cc2ccc(O)cc2)NC(=O)[C@H](CC(N)=O)NC(=O)CSC[C@@H](C(=O)N[C@@H](C)C(N)=O)NC(=O)[C@H]([C@@H](C)O)NC(=O)[C@H](C(C)C)NC1=O [Compound 1034] ({CH2CO}-NYDWV[Bip]VV[dL][Dab]LVTCA-NH2; thioether N-14) | 7.00
5 | CCC(C)[C@@H]1NC(=O)[C@H](Cc2ccc(-c3ccccc3)cc2)NC(=O)[C@H](C(C)C)NC(=O)[C@H](Cc2c[nH]c3ccccc23)NC(=O)[C@H](CC(=O)O)NC(=O)[C@H](Cc2ccc(-c3cccc(C(=O)O)c3)cc2)NC(=O)[C@H](Cc2ccncc2)NC(=O)CSC[C@@H](C(=O)N[C@@H](C)C(N)=O)NC(=O)[C@H]([C@@H](C)O)NC(=O)[C@H](C(C)C)NC(=O)[C@H](CC2CCCCC2)NC(=O)[C@H](CCN)NC(=O)[C@@H](CC(C)C)NC(=O)[C@H](CCCN)NC1=O (some centres unmarked) [Compound 2221] | 7.49
6 | CC[C@H](C)[C@@H]1NC(=O)[C@H](Cc2ccc(-c3ccccc3)cc2)NC(=O)[C@H](C(C)C)NC(=O)[C@H](Cc2c[nH]c3ccccc23)NC(=O)[C@H](CC(=O)O)NC(=O)[C@H](Cc2ccc(O)cc2)NC(=O)[C@H](CC(N)=O)NC(=O)CSC[C@@H](C(=O)NCC(N)=O)NC(=O)[C@H]([C@@H](C)O)NC(=O)[C@H](C(C)C)NC(=O)[C@H](CC(C)C)NC(=O)[C@H](CCN)NC(=O)[C@@H](CC(C)C)NC(=O)[C@H](CCN)NC1=O [Compound 1126] ({CH2CO}-NYDWV[Bip]I[Dab][dL][Dab]LVTCG-NH2; thioether N-14) | 7.62

The next lines start with the values.

Row | pIC50 | Structure (SMILES)
7 | 8.09 | CC(C)C[C@H]1NC(=O)[C@H](CCCN)NC(=O)[C@H](CCC(=O)O)NC(=O)[C@H](Cc2ccc(-c3ccccc3)cc2)NC(=O)[C@H](C(C)C)NC(=O)[C@H](Cc2c[nH]c3ccccc23)NC(=O)[C@H](CC(=O)O)NC(=O)[C@H](Cc2ccncc2)NC(=O)[C@H](Cc2ccncc2)NC(=O)CSC[C@@H](C(=O)N[C@@H](C)C(N)=O)NC(=O)[C@H]([C@@H](C)O)NC(=O)[C@H](C(C)C)NC(=O)[C@H](CC2CCCCC2)NC(=O)[C@H](CCN)NC1=O [Compound 2197] ({CH2CO}-[4Pal][4Pal]DWV[Bip]E[Orn][dL][Dab][Cha]VTCA-NH2; thioether N-14)
8 | 7.16 | C#CC[C@H](NC(=O)C[C@H](NC(=O)[C@H](CCN)NC(=O)[C@@H]1CSCC(=O)N[C@@H](Cc2ccncc2)C(=O)N[C@@H](Cc2ccc(C(=O)O)cc2)C(=O)N[C@@H](CC(=O)O)C(=O)N[C@@H](Cc2c[nH]c3ccccc23)C(=O)N[C@@H](C(C)C)C(=O)N[C@@H](Cc2ccc(-c3ccccc3)cc2)C(=O)N[C@@H]([C@@H](C)CC)C(=O)N[C@@H](CCCN)C(=O)N[C@H](CC(C)C)C(=O)N[C@@H](CCN)C(=O)N[C@@H](CC(C)C)C(=O)N[C@@H](C(C)C)C(=O)N[C@@H]([C@@H](C)O)C(=O)N1)C(=O)O)C(=O)O [Compound 1770] ({CH2CO}-[4Pal][Phe(4-COOH)]DWV[Bip]I[Orn][dL][Dab]LVTC[Dab][βAsp][Pra]-OH; thioether N-14)
9 | 7.60 | Cc1cccc(C[C@@H]2NC(=O)[C@H](CC(=O)O)NC(=O)[C@H](Cc3ccc(C(=O)O)cc3)NC(=O)[C@H](Cc3ccsc3)NC(=O)CSC[C@@H](C(=O)N[C@H](CC(N)=O)C(N)=O)NC(=O)[C@H](CO)NC(=O)[C@H](C(C)(C)O)NC(=O)[C@H](CC3CCCCC3)NC(=O)[C@H](CCN)NC(=O)[C@@H](CC(C)C)NC(=O)[C@H](CCCN)NC(=O)[C@H](Cc3ccc(C(=O)O)cc3)NC(=O)[C@H](Cc3ccc(-c4ccccc4)cc3)NC(=O)[C@H](Cc3ccc(OCC(=O)O)cc3)NC2=O)c1 [Compound 2656] ({CH2CO}-[3Thi][Phe(4-COOH)]D[Phe(3-Me)]Y(Carboxymethyl)[Bip][Phe(4-COOH)][Orn][dL][Dab][Cha][Val(3-OH)]SC[dN]-NH2; thioether N-14)
10 | 7.63 | CC(C)C[C@H]1NC(=O)[C@H](CCCN)NC(=O)[C@H](CCC(=O)O)NC(=O)[C@H](Cc2ccc(-c3ccccc3)cc2)NC(=O)[C@H](C(C)C)NC(=O)[C@H](Cc2c[nH]c3ccccc23)NC(=O)[C@H](CC(=O)O)NC(=O)[C@H](Cc2cccnc2)NC(=O)[C@H](CN)NC(=O)CSC[C@@H](C(=O)N[C@@H](C)C(N)=O)NC(=O)[C@H]([C@@H](C)O)NC(=O)[C@H](C(C)C)NC(=O)[C@H](CC2CCCCC2)NC(=O)[C@H](CCN)NC1=O [Compound 2172] ({CH2CO}-[Dap][3Pal]DWV[Bip]E[Orn][dL][Dab][Cha]VTCA-NH2; thioether N-14)
11 | 7.95 | CC(C)C[C@H]1NC(=O)[C@H](CCCN)NC(=O)[C@H](C(C)C)NC(=O)[C@H](Cc2ccc(-c3ccccc3)cc2)NC(=O)[C@H](C(C)C)NC(=O)[C@H](Cc2c[nH]c3ccccc23)NC(=O)[C@H](CC(=O)O)NC(=O)[C@H](Cc2ccc(OCC(=O)O)cc2)NC(=O)[C@H](Cc2ccc(OCC(=O)O)cc2)NC(=O)CSC[C@@H](C(=O)N[C@@H](C)C(N)=O)NC(=O)[C@H]([C@@H](C)O)NC(=O)[C@H](C(C)C)NC(=O)[C@H](Cc2ccccc2)NC(=O)[C@H](CCN)NC1=O [Compound 1663] ({CH2CO}-Y(Carboxymethyl)Y(Carboxymethyl)DWV[Bip]V[Orn][dL][Dab]FVTCA-NH2; thioether N-14)
12 | 7.42 | CCC(C)[C@@H]1NC(=O)[C@H](Cc2ccc(-c3ccccc3)cc2)NC(=O)[C@H](C(C)C)NC(=O)[C@H](Cc2c[nH]c3ccccc23)NC(=O)[C@H](CC(=O)O)NC(=O)[C@H](Cc2ccc(OCC(=O)O)cc2)NC(=O)[C@H](Cc2cccc3ccccc23)NC(=O)CSC[C@@H](C(=O)N[C@@H](C)C(N)=O)NC(=O)[C@H](C(C)O)NC(=O)[C@H](C(C)C)NC(=O)[C@H](CC2CCCCC2)NC(=O)[C@H](CCN)NC(=O)[C@@H](CC(C)C)NC(=O)[C@H](CCCN)NC1=O (some centres unmarked) [Compound 2521]
13 | 8.31 | Cc1cccc(C[C@@H]2NC(=O)[C@H](CC(=O)O)NC(=O)[C@H](Cc3ccc(OCC(=O)O)cc3)NC(=O)[C@H](CCNC(=O)C(C)(C)C)NC(=O)CSC[C@@H](C(=O)N[C@@H](CCN)C(N)=O)NC(=O)[C@H](CCCN)NC(=O)[C@H](C(C)C)NC(=O)[C@H](CC3CCCCC3)NC(=O)[C@H](CCN)NC(=O)[C@@H](CC(C)C)NC(=O)[C@H](CCCN)NC(=O)[C@H](Cc3ccc(O)cc3)NC(=O)[C@H](Cc3ccc(-c4ccccc4)cc3)NC(=O)[C@H](Cc3ccc(O)cc3)NC2=O)c1 [Compound 2040] ({CH2CO}-[Dab](Piv)Y(Carboxymethyl)D[Phe(3-Me)]Y[Bip]Y[Orn][dL][Dab][Cha]V[Orn]C[Dab]-NH2; thioether N-14)

same assay, conditions: read-out: Jurkat HPD1_PDL1 IC50; Jurkat-PD-1 cells, PE-labeled PD-L1-Ig 20 nM final

Row | Structure (SMILES) | pIC50
14 | CCC(C)[C@@H]1NC(=O)[C@H](CC2CCCCC2)NC(=O)[C@H](CCN)NC(=O)[C@@H](CC(C)C)NC(=O)[C@H](CCCN)NC(=O)[C@H](C(C)CC)NC(=O)[C@H](Cc2ccc(-c3ccccc3)cc2)NC(=O)[C@H](C(C)CC)NC(=O)[C@H](Cc2c[nH]c3ccccc23)NC(=O)[C@H](CC(=O)O)NC(=O)[C@H](Cc2ccc(OCC(=O)O)cc2)NC(=O)[C@H](C(C)O)NC(=O)CSC[C@@H](C(=O)N(C)CC(N)=O)NC(=O)[C@H](CO)NC1=O (stereo partly drawn) [Compound 2584] ({CH2CO}-[Thr(3ξ)]Y(Carboxymethyl)DW[Ile(3ξ)][Bip][Ile(3ξ)][Orn][dL][Dab][Cha][Ile(3ξ)]SC[Sar]-NH2; thioether N-14) | 7.01
